Data on three compounds can be found in patent US20040127467A1, “Synthesis of pancratistatin prodrugs” (priority 2003, published 2004).

Molecules are shown by their SMILES.

Data set [1] concerns U.S. National Cancer Institute (NCI) panel of cancer cell lines. The following applies: cited from earlier work.
Another data set deals with RNA viruses. The following applies: cited from earlier work.
For data set [2], the system named is minipanel of human cancer cell lines. Description: minipanel of human cancer cell lines growth inhibition. Format: cell-based. Conditions: murine P388 and minipanel of human cancer cell lines (Table I). The protocol: All of the synthetic products were evaluated against the murine P388 lymphocytic leukemia cell line and a minipanel of human cancer cell lines.

Data set [3] concerns murine P388 lymphocytic leukemia cell line. The following applies: compared with pancratistatin (1a); cited from earlier work.
For data set [4] the following is noted: compared with pancratistatin (1a); cited from earlier work.

`O=C1N[C@H]2[C@H](O)[C@H](O)[C@@H](O)[C@H](O)[C@@H]2c2cc3c(c(O)c21)OCO3` [1a, (+)-pancratistatin]: the “in vitro cancer cell growth inhibitory activities (in words)” value in data set [1] is recorded as “strong”. Also, the “activity against a range of RNA viruses (in words)” value with RNA viruses is “activity against a range of RNA viruses”.
In the case of `O=C1N[C@H]2[C@H](O)[C@H](O)[C@@H](O)[C@H](O)[C@@H]2c2cc3c(c(OP(=O)([O-])[O-])c21)OCO3.[Na+].[Na+]` [2a, Disodium 7-O-phosphoryl-pancratistatin], the “cancer cell line activity (in words)” value in data set [2] is “high activity”. For the same compound, in data set [3], the “activity against the murine P388 lymphocytic leukemia cell (in words)” value is listed as “equal activity”. The “solubility characteristics in water (in words)” value in data set [4] is listed as “greatly improved solubility characteristics in water”.
Take `C1COCCN1.O=C1NC2C(O)C(O)C(O)C(O)C2c2cc3c(c(OP(=O)(O)O)c21)OCO3` (stereo not drawn) [2k, Morpholine pancratistatin 7-O-phosphate]: the “water solubility (in words)” value was “poor water solubility”.
